From patent US20080090805A1, “CB-1 MODULATING COMPOUNDS AND THEIR USE” (ACADIA PHARMACEUTICALS INC., priority 2005, published 2008)
Where two headings read alike, the source gives them in different places.

Target: CB1 (mutant) (Homo sapiens, UniProt P21554)
Assay: R-SAT functional receptor assay, CB1 (mutant, truncated after amino acid 417)
Format: cell-based
Conditions: R-SAT CB1; for IC50: receptor form (mutant or wild-type) not stated; for Emax: receptor form not stated, relative to SR141716 (100%), read-out: % Inhibition
[1] = Appendix A, read-out: pIC50 (converted)

Sequence of CB1 (mutant) (P21554 1-417, change not shown): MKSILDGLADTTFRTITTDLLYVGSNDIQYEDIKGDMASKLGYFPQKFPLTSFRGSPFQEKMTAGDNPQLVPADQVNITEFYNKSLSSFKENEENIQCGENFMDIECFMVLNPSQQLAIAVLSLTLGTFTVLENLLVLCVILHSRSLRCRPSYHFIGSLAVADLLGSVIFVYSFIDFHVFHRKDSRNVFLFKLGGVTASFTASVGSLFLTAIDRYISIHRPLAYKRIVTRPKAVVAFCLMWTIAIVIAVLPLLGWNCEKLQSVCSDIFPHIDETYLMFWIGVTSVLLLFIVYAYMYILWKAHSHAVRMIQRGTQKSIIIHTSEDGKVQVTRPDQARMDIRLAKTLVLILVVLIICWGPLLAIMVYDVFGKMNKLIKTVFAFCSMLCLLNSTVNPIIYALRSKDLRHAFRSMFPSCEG

Structure (SMILES) | IC50 [1] [nM] | Emax (Appendix A) [%] | IC50 (pIC50, Appendix A) [nM]
CCCC1=Nc2cc(C(=O)NCCCN3CCN(c4ccccc4F)CC3)ccc2Sc2ccccc21 | 398 | 120 | –
O=C(NNC(=O)c1ccc2c(c1)N=C(c1ccc(Cl)cc1)c1ccccc1S2)c1ccccc1 | 398 | 71 | –
CCOC(=O)N1CCC(NC(=O)c2ccc3c(c2)N=C(CC(C)C)c2ccccc2S3)CC1 | 398 | 89 | –
CCCCN(CCCC)CCNC(=O)c1ccc2c(c1)N=C(CCC)c1ccccc1S2 | 398 | 109 | –
O=C(NCc1ccncc1)c1ccc2c(c1)N=C(N1CCCCC1)c1ccccc1S2 | 501 | 81 | –
CCCCCC1=Nc2cc(C(=O)NC3CCN(C(=O)OCC)CC3)ccc2Sc2ccccc21 | 501 | 87 | –
O=C(NN1CCCCC1)c1ccc2c(c1)NC(C1CCCCC1)c1ccccc1S2 (centres unmarked) | 501 | 43 | –
CCCCC1=Nc2cc(C(=O)NC3CCN(C(=O)OCC)CC3)ccc2Sc2ccccc21 | 501 | 96 | –
CONC(=O)c1ccc2c(c1)N=C(c1ccc(F)cc1)c1ccccc1S2 | 501 | 65 | –
CCOC(=O)c1ccc(C2=Nc3cc(C(=O)NCc4ccncc4)ccc3Sc3ccccc32)cc1 | 501 | 69 | –
CON(C)C(=O)c1ccc2c(c1)N=C(c1ccc(Cl)s1)c1ccccc1S2 | 501 | 55 | –
O=C(NN1CCCCC1)c1ccc2c(c1)N=C(c1ccccc1Cl)c1ccccc1S2 | 501 | 45 | –
O=C(NCc1cccnc1)c1ccc2c(c1)N=C(NCc1ccc(Cl)cc1)c1ccccc1S2 | 501 | 76 | –
O=C(NN1CCOCC1)c1ccc2c(c1)N=C(c1ccc(F)cc1)c1ccccc1S2 | 631 | 77 | –
CCCC1=Nc2cc(C(=O)NCCCN3CC(C)CC(C)C3)ccc2Sc2ccccc21 (centres unmarked) | 631 | 136 | –
CCCC1=Nc2cc(C(=O)NCCN3CCN(c4cccc(Cl)c4)CC3)ccc2Sc2ccccc21 | – | 76 | –
CCCC1=Nc2cc(C(=O)NCCCN(C)C3CCCCC3)ccc2Sc2ccccc21 | – | 120 | –
O=C(c1ccc2c(c1)N=C(c1ccc(Cl)cc1)c1ccccc1S2)N1CCCCC1 | – | 95 | 31.6
CCCC1=Nc2cc(C(=O)NCCCN3CCCCC3CC)ccc2Sc2ccccc21 (centres unmarked) | – | 128 | –
O=C(NC1CCCC1)c1ccc2c(c1)N=C(c1ccc(Cl)cc1Cl)c1ccccc1S2 | – | 52 | –
CC(C)NC(=O)c1ccc2c(c1)N=C(c1ccc(Cl)cc1Cl)c1ccccc1S2 | – | 45 | –
CCCC1=Nc2cc(C(=O)NCCN3CCOCC3)ccc2Sc2ccccc21 | – | 98 | –
CCCC1=Nc2cc(C(=O)N3CCN(Cc4ccc5c(c4)OCO5)CC3)ccc2Sc2ccccc21 | – | 96 | –

Further lines, with some results ahead:

IC50 [1] [nM] | Emax (Appendix A) [%] | Structure (SMILES) | IC50 (pIC50, Appendix A) [nM]
50.1 | 97 | CCONC(=O)c1ccc2c(c1)N=C(c1ccc(Cl)s1)c1ccccc1S2 | –
398 | 73 | CCONC(=O)c1ccc2c(c1)N=C(c1ccccc1F)c1ccccc1S2 | –
398 | 66 | CONC(=O)c1ccc2c(c1)N=C(c1ccc(Cl)s1)c1ccccc1S2 | –
398 | 71 | COCCNC(=O)c1ccc2c(c1)N=C(c1ccccn1)c1ccccc1S2 | –
501 | 45 | CONC(=O)c1ccc2c(c1)N=C(c1sccc1C)c1ccccc1S2 | –
501 | 63 | CCCNC(=O)c1ccc2c(c1)N=C(c1ncccc1C)c1ccccc1S2 | –
501 | 61 | Cc1cccnc1C1=Nc2cc(C(=O)NC3CCCCC3)ccc2Sc2ccccc21 | –
501 | 73 | CONC(=O)c1ccc2c(c1)N=C(c1cccc(Br)c1)c1ccccc1S2 | –
25.1 | 111 | CCCCNC(=O)c1ccc2c(c1)N=C(CCC)c1ccccc1S2 | –
501 | 119 | CCCC1=Nc2cc(C(=O)NC)ccc2Sc2ccccc21 | –
631 | 46 | CC(C)NC(=O)c1ccc2c(c1)N=C(c1ccccc1Cl)c1ccccc1S2 | –
– | 40 | CCCCN(C)C(=O)c1ccc2c(c1)N=C(c1ccccc1Cl)c1ccccc1S2 | –
